Source: patent publication US7888289B2, “Heterocyclylethylbenzamide derivatives” (Bayer Cropscience AG, priority 2005, dated 2011)

Test system: Alternaria brassicae
Experiment: In vivo test on Alternaria brassicae (radish plants, preventive spray)
Settings: radish plants (Pernot variety), contaminated 24 hours after treatment, grading 6 to 7 days after contamination vs control plants, read-out: protection (good (at least 50%) to total); for pest or weed control at 110 ppm: dose of 110 ppm; for pest or weed control at 330 ppm: dose of 330 ppm
Procedure: The active ingredient tested is prepared by potter homogenisation in a concentrated suspension type formulation at 100 g/l. This suspension is then diluted with water to obtain the desired active material concentration.
Radish plants (Pernot variety) in starter cups, sown on a 50/50 peat soil-pozzolana substrate and grown at 18-20° C., are treated at the cotyledon stage by spraying with the aqueous suspension described above.
Plants, used as controls, are treated with an aqueous solution not containing the active material.
After 24 hours, the plants are contaminated by spraying them with an aqueous suspension of Alternaria brassicae spores (40,000 spores per cm^3). The spores are collected from a 12-13-day-old culture.
The contaminated radish plants are incubated for 6-7 days at about 18° C., under a humid atmosphere.
Grading is carried out 6 to 7 days after the contamination, in comparison with the control plants.

Compound `COc1cc(C(F)(F)F)nn1CCNC(=O)c1ccccc1Br` [Compound E-1] has a pest or weed control at 110 ppm of no less than 50%.
`O=C(NCCc1sccc1Cl)c1ccccc1Br` [Compound A-7] was tested, and the pest or weed control at 330 ppm was no less than 50%.
With `Cn1cc(CCNC(=O)c2ccccc2C(F)(F)F)c(C(F)(F)F)n1` [Compound D-1] the pest or weed control at 330 ppm was no less than 50%.
Compound `Cc1nc(CCNC(=O)c2ccccc2C(F)(F)F)sc1C` [Compound B-2] has a pest or weed control at 110 ppm of no less than 50%.
Compound `Cc1ccccc1C(=O)NCCc1cn(C)nc1C(F)(F)F` [Compound D-5] has a pest or weed control at 330 ppm of no less than 50%.
`Cc1nc(C)c(CCNC(=O)c2ccccc2Br)s1` [Compound C-2] gave a pest or weed control at 330 ppm of no less than 50%.
For `O=C(NCCc1sccc1Cl)c1ccccc1C(F)(F)F` [Compound A-5], the pest or weed control at 330 ppm was no less than 50%.
For `Cn1cc(CCNC(=O)c2ccccc2Cl)c(C(F)(F)F)n1` [Compound D-4], the pest or weed control at 330 ppm was no less than 50%.
With `Cc1csc(CCNC(=O)c2ccccc2C(F)(F)F)n1` [Compound B-1] the pest or weed control at 330 ppm was no less than 50%.
`Cc1ccsc1CCNC(=O)c1ccccc1C(F)F` [Compound A-1] showed a pest or weed control at 110 ppm of no less than 50%.
